For this experiment, the target named is T1, β-secretase (BACE) (Homo sapiens, UniProt P56817).
T1 construct: purchased Panvera
As to the kind of experiment: BACE FS1% Inhibition Assay (Example 160). The experiment is classed as biochemical. As for the experimental part:
The following reagents were used in this assay: sodium acetate, PEB8000 (Sigma), DMSO, HEPES, FS1 substrate [[…]], β-secretase (BACE) (Panvera), and 96-well plate (HE microplate, Molecular Devices). […] The FS1-substrate stock solution was prepared in DMSO as a 10 mg/mL solution. The FS1-substrate working solution was prepared by diluting the 10 mg/mL stock solution with substrate assay buffer to a final concentration of 300 μg/mL. The β-secretase (BACE) working solution was prepared by diluting a 0.83 mg/mL BACE stock solution with enzyme assay buffer to a final concentration of 4 μg/mL. Test compounds were dissolved in DMSO to 10 mM. […] The screening procedure for this assay was as follows: 15 μL of BACE working solution was pipetted into each well of a 96-well plate. To each well was the pipetted 2 μL of test compound at the selected concentration. Test compound and BACE were then mixed with a pipettor and incubated for 20 min at room temperature. To each well was then added 10 μL of the FS1 substrate working solution. The plates were then incubated for 1 hour at room temperature. […] The procedure for the blank was as follows. 15 μL of assay buffer was pipetted into each well to be used as a blank control. To each well was then added 2 μL of vehicle and 10 μL of FS1-substrate working solution. The plates were then incubated for 1 hour at room temperature. […] The procedure for the positive control was as follows: 15 μL of BACE working solution was pipetted into each well to be used as a positive control. To each well was then pipetted 2 μL of vehicle. Vehicle and BACE were then mixed with a pipettor and incubated for 20 min at room temperature. To each well was then added 10 μL of the FS1 substrate working solution. The plates were then incubated for 1 hour at room temperature. […] For test compounds, % inhibition was determined at each concentration as follows: [formula]

The structures appear in SMILES notation.

Here are results for 37 compounds from patent US8436006B2, “2-amino-quinazoline derivatives useful as inhibitors of β-secretase (BACE)” (Jansssen Pharmaceutica N.V., priority 2004, dated 2013).

T1 sequence (P56817 46-501): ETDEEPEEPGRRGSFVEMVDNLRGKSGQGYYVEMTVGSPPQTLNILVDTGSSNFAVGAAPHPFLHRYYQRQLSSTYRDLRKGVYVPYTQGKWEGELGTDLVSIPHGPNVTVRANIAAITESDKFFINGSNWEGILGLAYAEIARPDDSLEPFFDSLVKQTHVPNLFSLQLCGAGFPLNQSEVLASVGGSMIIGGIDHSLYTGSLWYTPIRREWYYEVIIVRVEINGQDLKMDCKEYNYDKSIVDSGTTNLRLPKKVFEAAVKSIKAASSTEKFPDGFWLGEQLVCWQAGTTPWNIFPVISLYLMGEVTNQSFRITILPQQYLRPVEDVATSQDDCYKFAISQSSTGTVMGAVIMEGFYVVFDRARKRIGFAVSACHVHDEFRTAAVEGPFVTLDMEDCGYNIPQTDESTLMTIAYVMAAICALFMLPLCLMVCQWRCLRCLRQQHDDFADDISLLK

For the compound `CCCCC(CC)C(=O)NCCN1Cc2cc(-c3ccccc3C)ccc2N=C1N` (centres unmarked) [Compound 662], the “% Inhibition (FS)” value was found to be 66% (0.3 μM test compound) and 97% (1 μM test compound).
Regarding `CC(=O)N1CCC(C(=O)NCCN2Cc3cc(-c4ccccc4)ccc3N=C2N)CC1` [Compound 702], the “% Inhibition (FS)” value by setting is: (0.3 μM test compound) less than 30%; (1 μM test compound) less than 30%; (3 μM test compound) less than 30%.
Turning to `Cc1ccccc1-c1ccc2c(c1)CN(CCNC(=O)CCC(C)C)C(N)=N2` [Compound 661], the “% Inhibition (FS)” value (0.3 μM test compound) is given as 68% and the “% Inhibition (FS)” value (1 μM test compound) is on record as 98%.
As for `NC1=Nc2ccc(-c3ccccc3F)cc2CN1CCNC(=O)C1CCC(C(F)(F)F)CC1` (centres unmarked) [Compound 688], the “% Inhibition (FS)” value runs as follows: (0.3 μM test compound) less than 30%; (1 μM test compound) 36%; (3 μM test compound) 81%.
Take `CC(=O)N1CCC(C(=O)NCCN2Cc3cc(-c4ccccc4C)ccc3N=C2N)CC1` [Compound 695]: the “% Inhibition (FS)” value is, setting by setting: (0.3 μM test compound) less than 30%; (1 μM test compound) less than 30%; (3 μM test compound) 54%.
As to `NC1=Nc2ccc(-c3ccccc3)cc2CN1CCNC(=O)C1CCC(C(F)(F)F)CC1` (centres unmarked) [Compound 701], the “% Inhibition (FS)” value is listed as less than 30% (0.3 μM test compound), less than 30% (1 μM test compound) and 54% (3 μM test compound).
In the case of `CN(CCC#N)C(=O)CC[C@@H](C1CCCCC1)N1Cc2cc(-c3ccccc3F)ccc2N=C1N` [Compound 725], the “% Inhibition (FS)” value (0.3 μM test compound) was 33%, the “% Inhibition (FS)” value (1 μM test compound) was 74% and the “% Inhibition (FS)” value (3 μM test compound) came out at 126%.
As to `COC(=O)C(COCc1ccccc1)N(C)C(=O)CCC(C1CCCCC1)N1Cc2cc(Oc3ccccc3)ccc2N=C1N` (centres unmarked) [Compound 780], the “% Inhibition (FS)” value was found to be 69% (0.3 μM test compound) and 97% (1 μM test compound).
Regarding `COc1cccc(F)c1-c1ccc2c(c1)CN(CCNC(=O)C1CCOCC1)C(N)=N2` [Compound 699], the “% Inhibition (FS)” value by setting is: (0.3 μM test compound) 31%; (1 μM test compound) 64%; (3 μM test compound) 93%.
In the same order, the values of `CN(C(=O)CCC(C1CCCCC1)N1Cc2cc(Oc3ccccc3)ccc2N=C1N)C1CCC(C(=O)OCc2ccccc2)CC1` (centres unmarked) [Compound 760] are less than 30%, 44% and 89%.
In the same order, the values of `NC1=Nc2ccc(-c3ccc4ccccc4c3)cc2CN1CCNC(=O)CCC(F)(F)F` [Compound 686] are less than 30%, 73% and 80%.
For `CCCC(CCC)C(=O)NCC(C1CCCCC1)N1Cc2cc(Oc3ccccc3)ccc2N=C1N` (centres unmarked) [Compound 302], in that order: less than 30%, 72% and 108%.
On to `CN(Cc1cc(-c2ccccc2)on1)C(=O)CC[C@@H](C1CCCCC1)N1Cc2cc(-c3ccccc3F)ccc2N=C1N` [Compound 724], for which the “% Inhibition (FS)” value reads like this: (0.3 μM test compound) 38%; (1 μM test compound) less than 30%; (3 μM test compound) 65%.
For `CCCC(=O)NCCN1Cc2cc(-c3ccc4ccccc4c3)ccc2N=C1N` [Compound 666], in that order: 37%, less than 30% and less than 30%.
As for `CCOC(=O)C1CCC(N(C)C(=O)CCC(C2CCCCC2)N2Cc3cc(Oc4ccccc4)ccc3N=C2N)CC1` (centres unmarked) [Compound 737], the “% Inhibition (FS)” value runs as follows: (0.3 μM test compound, 0.3 µM) 22%; (1 μM test compound, 1 µM) 34%; (3 μM test compound, 3 µM) 97%.
Consider `COC(=O)C1CCCC(N(C)C(=O)CCC(C2CCCCC2)N2Cc3cc(Oc4ccccc4)ccc3N=C2N)C1` (mixture of isomers) [Compound 777], for which the “% Inhibition (FS)” value runs as follows: (0.3 μM test compound) 38%; (1 μM test compound) 97%.
With `CCOC(=O)C1CCC(N(C)C(=O)CCC(C2CCCCC2)N2Cc3cc(Oc4ccccc4)ccc3N=C2N)CC1` (centres unmarked) [Compound 763], the “% Inhibition (FS)” value by setting is: (0.3 μM test compound, 0.3 µM) less than 30%; (1 μM test compound, 1 µM) 84%.
Consider `CN(C(=O)CCC(C)(C)N1Cc2cc(Oc3ccccc3)ccc2N=C1N)C1CCCCC1` [Compound 738], for which the “% Inhibition (FS)” value is, setting by setting: (0.3 μM test compound) 14%; (1 μM test compound) 28%; (3 μM test compound) 61%.
In the same order, the values of `NC1=Nc2ccc(C3=CCCC3)cc2CN1CCNC(=O)C1CCC(C(F)(F)F)CC1` (centres unmarked) [Compound 707] are less than 30%, less than 30% and less than 30%.
`CN(C(=O)CCC(C1CCOCC1)N1Cc2cc(Oc3ccccc3)ccc2N=C1N)C1CCC(C(=O)O)CC1` (centres unmarked) [Compound 743]: the “% Inhibition (FS)” value (3 μM test compound) was 130%.
On to `CC(C)C(CNC(=O)C12CC3CC(CC(C3)C1)C2)N1Cc2cc(Oc3ccccc3)ccc2N=C1N` (centres unmarked) [Compound 562], for which the “% Inhibition (FS)” value reads like this: (0.3 μM test compound) 106%; (1 μM test compound) 118%; (3 μM test compound) 128%.
In the case of `NC1=Nc2ccc(-c3ccc4ccccc4c3)cc2CN1CCNC(=O)C1CCC1` [Compound 663], the “% Inhibition (FS)” value runs as follows: (0.3 μM test compound) less than 30%; (1 μM test compound) less than 30%; (3 μM test compound) less than 30%.
Consider `NC1=Nc2ccc(-c3cnc4ccccc4c3)cc2CN1CCNC(=O)C1CCCC1` [Compound 671], for which the “% Inhibition (FS)” value runs as follows: (0.3 μM test compound) less than 30%; (1 μM test compound) 30%; (3 μM test compound) less than 30%.
Regarding `NC1=Nc2ccc(-c3ccccc3F)cc2CN1CCNC(=O)C1CCOCC1` [Compound 687], the “% Inhibition (FS)” value (0.3 μM test compound) is less than 30%, the “% Inhibition (FS)” value (1 μM test compound) is on record as 50% and the “% Inhibition (FS)” value (3 μM test compound) turned out to be 87%.
In the same order, the values of `CNC(=O)C1CCC(N(C)C(=O)CCC(C2CCCCC2)N2Cc3cc(Oc4ccccc4)ccc3N=C2N)CC1` (centres unmarked) [Compound 765] are less than 30%, 56% and 97%.
In the same order, the values of `CC(C)(C)C(=O)NCCN1Cc2cc(-c3ccc4ccccc4c3)ccc2N=C1N` [Compound 667] are 33%, less than 30% and less than 30%.
For `COc1ccc(C(CCC(=O)N(C)C2CCCCC2)N2Cc3cc(Oc4ccccc4)ccc3N=C2N)cc1` (centres unmarked) [Compound 298], in that order: less than 30%, 75% and 110%.
On to `CN(CCc1ccccc1)C(=O)CC[C@@H](C1CCCCC1)N1Cc2cc(-c3ccccc3F)ccc2N=C1N` [Compound 727], for which the “% Inhibition (FS)” value turned out to be 46% (0.3 μM test compound) and 80% (1 μM test compound).
`COc1ccccc1-c1ccc2c(c1)CN([C@@H](CCC(=O)N(C)Cc1cc(-c3ccccc3)on1)C1CCCCC1)C(N)=N2` [Compound 719]: the “% Inhibition (FS)” value runs as follows: (0.3 μM test compound) 31%; (1 μM test compound) less than 30%; (3 μM test compound) 81%.
Take `CC(CC(=O)NCCN1Cc2cc(-c3ccccc3F)ccc2N=C1N)C(F)(F)F` (centres unmarked) [Compound 681]: the “% Inhibition (FS)” value runs as follows: (0.3 μM test compound) 67%; (1 μM test compound) 100%.
Turning to `NC1=Nc2ccc(-c3cnc4ccccc4c3)cc2CN1CCNC(=O)C1CCC1` [Compound 670], the “% Inhibition (FS)” value reads like this: (0.3 μM test compound) less than 30%; (1 μM test compound) less than 30%; (3 μM test compound) 44%.
Take `CC(C)[C@H](CNC(=O)C1CCCCC1)N1Cc2cc(Oc3ccccc3)ccc2N=C1N` [Compound 561]: the “% Inhibition (FS)” value is, setting by setting: (0.3 μM test compound) 114%; (1 μM test compound) 118%; (3 μM test compound) 125%.
For `NC1=Nc2ccc(C3=CCCCC3)cc2CN1CCNC(=O)C1CCC(C(F)(F)F)CC1` (centres unmarked) [Compound 704], in that order: less than 30%, less than 30% and less than 30%.
As for `COc1ccccc1-c1ccc2c(c1)CN([C@@H](CCC(=O)N(C)Cc1cc(C)no1)C1CCCCC1)C(N)=N2` [Compound 718], the “% Inhibition (FS)” value reads like this: (0.3 μM test compound) less than 30%; (1 μM test compound) 30%.
With `NC1=Nc2ccc(-c3ccccc3F)cc2CN1CCNC(=O)CCC(F)(F)F` [Compound 680], the “% Inhibition (FS)” value came out at 42% (0.3 μM test compound), 75% (1 μM test compound) and 90% (3 μM test compound).
In the same order, the values of `CC(C)CCC(=O)NCCN1Cc2cc(-c3cnc4ccccc4c3)ccc2N=C1N` [Compound 675] are 35%, less than 30% and less than 30%.
With `COC1CCCC(C(=O)NCCN2Cc3cc(-c4ccccc4)ccc3N=C2N)C1` (centres unmarked) [Compound 703], the “% Inhibition (FS)” value is listed as less than 30% (0.3 μM test compound), 46% (1 μM test compound) and 83% (3 μM test compound).
